According to patent US20260115177A1, “MEDICINAL PRODUCTS AND METHODS FOR THE ALLEVIATION OF CANCER IMMUNOTHERA-PY-ASSOCIATED CYTOKINE RELEASE SYNDROME” (POOLBEG PHARMA (UK) LIMITED, priority 2023, published 2026):

Key:
[1] = tested on: HUVEC endothelial cells; experiment: QPCR of ICAM1 in HUVEC cells treated with sCART-mono supernatant; format: cell-based, human; details: 24 hours
Method: With reference to FIG. 13 of the accompanying drawings, a co-culture (100) is established using a standard cell culture transwell dish, including a first compartment (101), containing CAR T cells and cancer cells (at a 1:1 ratio), which is separated from a second compartment (102), containing monocytes, by a semi-permeable membrane (103) composed of tissue-culture treated polyethylene terephthalate with a 0.4 μm pore size.
Each of UR-13870, Acumapimod and Ralimetinib are administered to the co-culture following a procedure analogous to that described in Example 2 above (at the concentrations as shown in Table 2 above).
The co-culture is incubated at 37° C., 5% CO2 and a suitably humid environment for 24 hours. On completion, the transwell insert is removed and supernatant is isolated. Cells and debris are removed from the supernatant by exposing the container to a centripetal force of 400 G and gently pipetting the supernatant into a new container without disturbing the cell pellet at the bottom of the previous container.
Prior to adding the p38 inhibitors and sCART-mono, endothelial cells are incubated overnight at 37° C. and 5% CO2 in a suitably humid environment to allow the cells to adhere fully to the tissue culture dish.
Reduced endothelial cell activation is evidenced by reduced ICAM1 expression in response to treatment with UR-13870, Acumapimod and Ralimetinib.

[2] = tested on: PBMC humanized NSG-MHC I/II double knock-out mice with Raji-Luc CD19-expressing cancer cells; experiment: In vivo (murine) model using anti-CD28 antibody for CRS induction; design: species or system mouse
From the text: An outline of the timeline of the model is provided in FIG. 19; it commences on Study Day 0 and ends on Study Day 10. […] It thus models the effect of administering a p38 MAP kinase inhibitor prior to the onset of CRS in accordance with the present disclosure.
Anti-CD28 antibody acts as a super-agonist of T cells (i.e., strongly activates T cells) resulting in T cell-mediated tumour cell death, with a rapid consequent release of cytokines and knock-on effects for monocytes and endothelial cells; thus modelling CRS induced by various different types of T cell-involving cancer immunotherapy.
Thus, on Study Day 0, 30 female 6- to 8-week-old NSG-(KbDb)null (IA)null mice are irradiated at 100 cGy. Approximately 4 hours later, on the same day (Study Day 0) all mice are humanised by IV dosing with 15×10^6 human peripheral blood mononuclear cells (PBMCs).
On Study Day 5, all mice are intravenously dosed with 0.25×10^6 Raji-Luc CD19-expressing cancer cells (a Raji wild-type cell line with stable and high expression of luciferase, enabling detection of cancer burden by […]). Approximately 4 hours later, mice are imaged using in vivo […] imaging (IVIS). For IVIS, mice are IP injected with 150 mg/kg D-Luciferin. 10 minutes after the D-Luciferin injection, mice are imaged dorsal and ventral; auto exposure) using an IVIS Lumina system (obtainable from PerkinElmer of Chalfont Road. Seer Green, Beaconsfield, HP9 2FX, UK). Regions of interest (ROI) are drawn for each mouse to capture its whole body, and total flux (p/s) is reported. Tumour burden continues to be monitored by IVIS twice per week, starting on Study Day 5, until the end of the study. Daily clinical observation continues throughout the study, including observation of CRS, CRS being scored as follows:
On Study Day 6, 25 of the 30 mice are treated with 1 mg/kg anti-CD28.
As a control, a group consisting of the 5 remaining mice (“Group 1”) are not administered anti-CD28. Beginning on Study Day 4 and ending on Study Day 10, Group 1 receive treatment with 0.5% (w:v) HPMC, 0.1% (w:v) Tween 80 in sWFI (vehicle/control), administered BID at 5 mL/kg.
The 25 mice administered anti-CD28 are divided into groups of 5 mice per group. Administration of a control drug (Humira), vehicle or UR-13870 is carried out in accordance with the following protocol: • Group 2—Vehicle only, BID, beginning on Study Day 4 and ending on Study Day 10; • Group 3—UR-13870 (formulated in vehicle), 2 mg/kg, twice daily (BID) beginning on Study Day 4 and ending on Study Day 10; • Group 4—UR-13870 (formulated in vehicle), 10 mg/kg, twice daily (BID) beginning on Study Day 4 and ending on Study Day 10; • Group 5—UR-13870 (formulated in vehicle), 25 mg/kg, twice daily (BID) beginning on Study Day 4 and ending on Study Day 10; and • Group 6—Humira (formulated in PBS) (further, positive control) 5 mg/kg, once daily beginning on Study Day 4 and ending on Study Day 10.
Dosing of UR-13870 or vehicle is by subcutaneous injection. Subcutaneous injection sites are rotated for each dose (rotating among right flank, left flank, right inguinal region, left inguinal region). For UR-13870 and vehicle, AM and PM (BID) doses are scheduled at least 6 hours apart. Dosing of Humira is by intraperitoneal injection.
On Study Days 6, 9 and 10, blood is collected from each of the 30 mice in Groups 1-6 (a 50-200 μl blood sample from each mouse, each time), for flow cytometry analysis, including analysis of CD19+ cancer cells per ml; and cytokine measurement. It should be noted that, where relevant to BID dosed groups, blood collection is carried out between AM and PM dosing.
All mice in Groups 1-6 are euthanized by CO2 asphyxiation on Study Day 10. […]

In the case of `OCCCn1cc2c(-c3ccc(F)cc3)c(-c3ccncc3)c(-c3ccc(F)cc3)nc2n1` [UR-13870, 6-bis(4-fluorophenyl)-5-(4-pyridinyl)-2Hpyrazolo[3,4-b]pyridine-2-propanol], the “ICAM1 expression (endothelial cell activation)” value [1] is reported as “reduced”, the “tumour cell proliferation (tumour burden by IVIS)” value ([2]; Day 5 to Day 7) is reported as “does not increase” and the “T cell mediated cancer cell death” value ([2]; Day 5 to Day 7, tumour burden by IVIS) is reported as “maintains”. For the same compound, the CRS scores ([2]; anti-CD28 1 mg/kg, UR-13870 2, 10, 25 mg/kg BID s.c., Humira 5 mg/kg once daily i.p., Study Day 4 to 10) was “significantly reduces”, the IFNγ ([2]; blood serum, Luminex) was “reduced” and the IL-2 ([2]; blood serum, Luminex) was “reduced”. The IL-4 ([2]; blood serum, Luminex) was “reduced”, the IL-6 ([2]; blood serum, Luminex) was “reduced” and the IL-8 ([2]; blood serum, Luminex) was “reduced”. The IL-10 ([2]; blood serum, Luminex) was “reduced”, the MIP-1α ([2]; blood serum, Luminex) was “reduced” and the TNF a ([2]; blood serum, Luminex) was “reduced”. For the same compound, the “hCD45+ CD3+ hCD4+ cells/μl” value ([2]; blood, day 9) was “Neither UR-13870 or Humira had a significant impact”, the “hCD45+ cells/μl” value ([2]; blood, days 9 and 10) was “Neither UR-13870 or Humira had a significant impact” and the “hCD45+ hCD3+ cells/μl” value ([2]; blood, days 9 and 10) was “Neither UR-13870 or Humira had a significant impact”. For the same compound, the “proliferation of tumour cells (counts of CD19+ cancer cells per ml)” value ([2]; blood, flow cytometry) was “neither UR-13870 or Humira increased proliferation of tumour cells” and the “mean CD19+ cancer cells per ml compared to CD28 stimulation only” value ([2]; days 9 and 10 (especially day 10)) was “downward trend”.
